Experimental data from ChEMBL document CHEMBL5442219.

Key:
Settings in all cases: Compound concentration 10 µM
[1] = target: T1, Alpha-2B adrenergic receptor (Homo sapiens) (UniProt P18089)
T1 sequence (whole entry): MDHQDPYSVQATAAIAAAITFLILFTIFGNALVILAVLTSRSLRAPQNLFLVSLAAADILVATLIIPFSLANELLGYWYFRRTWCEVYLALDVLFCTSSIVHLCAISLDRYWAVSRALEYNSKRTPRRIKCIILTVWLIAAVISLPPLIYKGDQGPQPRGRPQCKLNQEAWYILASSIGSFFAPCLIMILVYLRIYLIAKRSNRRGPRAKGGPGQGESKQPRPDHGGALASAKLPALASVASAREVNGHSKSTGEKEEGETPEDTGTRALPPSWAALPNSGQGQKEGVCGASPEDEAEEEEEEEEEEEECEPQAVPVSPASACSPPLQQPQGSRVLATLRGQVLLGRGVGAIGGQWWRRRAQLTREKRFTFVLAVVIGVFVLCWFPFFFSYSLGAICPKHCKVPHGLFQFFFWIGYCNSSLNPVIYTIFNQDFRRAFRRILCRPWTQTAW
Description: PDSP Primary Binding target: ADRA2B - Compounds are tested at 10 uM concentration, plate are incubated at room temperature in the dark for 90 minutes. Reaction are stopped by vacuum filtration onto 0.3% polyethyleneimine soaked filter mats using Filtermate harvester. Scintilation cocktail is then melted onto microwave-dried filters on a hot plate and the radio activity is counted in Microbia counter.

[2] = target: Histamine H3 receptor (Homo sapiens) (UniProt Q9Y5N1)
Description: PDSP Primary Binding target: HRH3 - Compounds are tested at 10 uM concentration, plate are incubated at room temperature in the dark for 90 minutes. Reaction are stopped by vacuum filtration onto 0.3% polyethyleneimine soaked filter mats using Filtermate harvester. Scintilation cocktail is then melted onto microwave-dried filters on a hot plate and the radio activity is counted in Microbia counter.

[3] = target: T2, Alpha-1D adrenergic receptor (Homo sapiens) (UniProt P25100)
T2 sequence (whole entry): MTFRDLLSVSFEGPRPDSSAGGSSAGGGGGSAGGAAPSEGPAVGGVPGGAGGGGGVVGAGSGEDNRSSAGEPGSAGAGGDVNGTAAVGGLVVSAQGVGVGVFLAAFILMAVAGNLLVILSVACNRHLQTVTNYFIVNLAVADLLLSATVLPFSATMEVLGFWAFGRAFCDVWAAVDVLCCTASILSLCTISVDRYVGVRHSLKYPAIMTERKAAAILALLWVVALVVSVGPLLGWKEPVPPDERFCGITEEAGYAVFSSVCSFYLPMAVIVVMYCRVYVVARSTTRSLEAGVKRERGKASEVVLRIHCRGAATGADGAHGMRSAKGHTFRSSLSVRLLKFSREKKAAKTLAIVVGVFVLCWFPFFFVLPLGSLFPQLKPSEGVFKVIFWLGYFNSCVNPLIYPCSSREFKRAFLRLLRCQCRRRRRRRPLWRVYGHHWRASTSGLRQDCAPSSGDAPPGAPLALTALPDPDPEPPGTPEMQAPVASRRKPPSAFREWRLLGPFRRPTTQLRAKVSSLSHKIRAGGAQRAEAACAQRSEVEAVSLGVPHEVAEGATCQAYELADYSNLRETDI
Description: PDSP Primary Binding target: ADRA1D - Compounds are tested at 10 uM concentration, plate are incubated at room temperature in the dark for 90 minutes. Reaction are stopped by vacuum filtration onto 0.3% polyethyleneimine soaked filter mats using Filtermate harvester. Scintilation cocktail is then melted onto microwave-dried filters on a hot plate and the radio activity is counted in Microbia counter.

[4] = target: Sigma intracellular receptor 2 (Homo sapiens) (UniProt Q5BJF2)
Description: PDSP Primary Binding target: TMEM97 - Compounds are tested at 10 uM concentration, plate are incubated at room temperature in the dark for 90 minutes. Reaction are stopped by vacuum filtration onto 0.3% polyethyleneimine soaked filter mats using Filtermate harvester. Scintilation cocktail is then melted onto microwave-dried filters on a hot plate and the radio activity is counted in Microbia counter.

[5] = target: Delta-type opioid receptor (Homo sapiens) (UniProt P41143)
Description: PDSP Primary Binding target: OPRD1 - Compounds are tested at 10 uM concentration, plate are incubated at room temperature in the dark for 90 minutes. Reaction are stopped by vacuum filtration onto 0.3% polyethyleneimine soaked filter mats using Filtermate harvester. Scintilation cocktail is then melted onto microwave-dried filters on a hot plate and the radio activity is counted in Microbia counter.

[6] = target: Mu-type opioid receptor (Homo sapiens) (UniProt P35372)
Description: PDSP Primary Binding target: OPRM1 - Compounds are tested at 10 uM concentration, plate are incubated at room temperature in the dark for 90 minutes. Reaction are stopped by vacuum filtration onto 0.3% polyethyleneimine soaked filter mats using Filtermate harvester. Scintilation cocktail is then melted onto microwave-dried filters on a hot plate and the radio activity is counted in Microbia counter.

[7] = target: T3, Muscarinic acetylcholine receptor M4 (Homo sapiens) (UniProt P08173)
T3 sequence (whole entry): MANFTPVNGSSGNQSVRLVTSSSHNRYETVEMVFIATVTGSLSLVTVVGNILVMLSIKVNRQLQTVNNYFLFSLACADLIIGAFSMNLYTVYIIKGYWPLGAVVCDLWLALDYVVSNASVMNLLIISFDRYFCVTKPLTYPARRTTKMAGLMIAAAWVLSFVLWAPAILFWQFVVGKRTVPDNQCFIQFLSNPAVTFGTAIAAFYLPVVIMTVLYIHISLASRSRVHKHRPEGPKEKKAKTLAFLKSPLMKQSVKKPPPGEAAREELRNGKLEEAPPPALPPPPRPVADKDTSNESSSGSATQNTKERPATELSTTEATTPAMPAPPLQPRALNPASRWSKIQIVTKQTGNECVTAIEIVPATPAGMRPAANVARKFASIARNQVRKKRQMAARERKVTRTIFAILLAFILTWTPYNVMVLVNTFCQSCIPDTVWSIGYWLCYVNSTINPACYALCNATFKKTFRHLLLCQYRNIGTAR
Description: PDSP Primary Binding target: CHRM4 - Compounds are tested at 10 uM concentration, plate are incubated at room temperature in the dark for 90 minutes. Reaction are stopped by vacuum filtration onto 0.3% polyethyleneimine soaked filter mats using Filtermate harvester. Scintilation cocktail is then melted onto microwave-dried filters on a hot plate and the radio activity is counted in Microbia counter.

[8] = target: T4, Muscarinic acetylcholine receptor M1 (Homo sapiens) (UniProt P11229)
T4 sequence (whole entry): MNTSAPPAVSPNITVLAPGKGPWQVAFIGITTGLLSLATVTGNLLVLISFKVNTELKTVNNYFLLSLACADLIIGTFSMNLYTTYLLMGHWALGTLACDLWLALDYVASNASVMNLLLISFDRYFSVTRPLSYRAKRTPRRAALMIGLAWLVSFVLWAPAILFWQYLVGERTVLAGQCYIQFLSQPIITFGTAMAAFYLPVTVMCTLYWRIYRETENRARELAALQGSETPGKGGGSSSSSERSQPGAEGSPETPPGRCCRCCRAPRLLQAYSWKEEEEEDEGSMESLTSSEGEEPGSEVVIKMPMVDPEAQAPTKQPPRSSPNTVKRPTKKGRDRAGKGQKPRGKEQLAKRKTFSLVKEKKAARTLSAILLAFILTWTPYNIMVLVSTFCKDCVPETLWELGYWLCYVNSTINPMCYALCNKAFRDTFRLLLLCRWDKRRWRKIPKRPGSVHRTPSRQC
Description: PDSP Primary Binding target: CHRM1 - Compounds are tested at 10 uM concentration, plate are incubated at room temperature in the dark for 90 minutes. Reaction are stopped by vacuum filtration onto 0.3% polyethyleneimine soaked filter mats using Filtermate harvester. Scintilation cocktail is then melted onto microwave-dried filters on a hot plate and the radio activity is counted in Microbia counter.

[9] = target: 5-hydroxytryptamine receptor 2A (Homo sapiens) (UniProt P28223)
Description: PDSP Primary Binding target: HTR2A - Compounds are tested at 10 uM concentration, plate are incubated at room temperature in the dark for 90 minutes. Reaction are stopped by vacuum filtration onto 0.3% polyethyleneimine soaked filter mats using Filtermate harvester. Scintilation cocktail is then melted onto microwave-dried filters on a hot plate and the radio activity is counted in Microbia counter.

[10] = target: T5, Alpha-1A adrenergic receptor (Homo sapiens) (UniProt P35348)
T5 sequence (whole entry): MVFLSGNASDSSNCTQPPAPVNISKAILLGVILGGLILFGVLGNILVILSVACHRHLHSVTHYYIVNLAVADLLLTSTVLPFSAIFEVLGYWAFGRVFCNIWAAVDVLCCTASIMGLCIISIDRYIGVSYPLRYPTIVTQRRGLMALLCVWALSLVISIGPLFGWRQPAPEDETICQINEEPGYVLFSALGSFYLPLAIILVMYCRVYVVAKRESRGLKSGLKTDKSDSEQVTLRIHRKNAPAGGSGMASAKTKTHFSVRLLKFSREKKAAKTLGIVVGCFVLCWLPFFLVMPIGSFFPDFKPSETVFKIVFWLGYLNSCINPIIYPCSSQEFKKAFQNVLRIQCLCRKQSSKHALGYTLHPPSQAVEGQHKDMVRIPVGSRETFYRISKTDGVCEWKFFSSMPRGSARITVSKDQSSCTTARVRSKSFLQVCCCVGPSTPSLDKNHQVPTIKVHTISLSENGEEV
Description: PDSP Primary Binding target: ADRA1A - Compounds are tested at 10 uM concentration, plate are incubated at room temperature in the dark for 90 minutes. Reaction are stopped by vacuum filtration onto 0.3% polyethyleneimine soaked filter mats using Filtermate harvester. Scintilation cocktail is then melted onto microwave-dried filters on a hot plate and the radio activity is counted in Microbia counter.

[11] = target: Beta-2 adrenergic receptor (Homo sapiens) (UniProt P07550)
Description: PDSP Primary Binding target: ADRB2 - Compounds are tested at 10 uM concentration, plate are incubated at room temperature in the dark for 90 minutes. Reaction are stopped by vacuum filtration onto 0.3% polyethyleneimine soaked filter mats using Filtermate harvester. Scintilation cocktail is then melted onto microwave-dried filters on a hot plate and the radio activity is counted in Microbia counter.

[12] = target: 5-hydroxytryptamine receptor 1E (Homo sapiens) (UniProt P28566)
Description: PDSP Primary Binding target: HTR1E - Compounds are tested at 10 uM concentration, plate are incubated at room temperature in the dark for 90 minutes. Reaction are stopped by vacuum filtration onto 0.3% polyethyleneimine soaked filter mats using Filtermate harvester. Scintilation cocktail is then melted onto microwave-dried filters on a hot plate and the radio activity is counted in Microbia counter.

[13] = target: D(1B) dopamine receptor (Homo sapiens) (UniProt P21918)
Sequence of D(1B) dopamine receptor (Homo sapiens) (P21918 whole entry): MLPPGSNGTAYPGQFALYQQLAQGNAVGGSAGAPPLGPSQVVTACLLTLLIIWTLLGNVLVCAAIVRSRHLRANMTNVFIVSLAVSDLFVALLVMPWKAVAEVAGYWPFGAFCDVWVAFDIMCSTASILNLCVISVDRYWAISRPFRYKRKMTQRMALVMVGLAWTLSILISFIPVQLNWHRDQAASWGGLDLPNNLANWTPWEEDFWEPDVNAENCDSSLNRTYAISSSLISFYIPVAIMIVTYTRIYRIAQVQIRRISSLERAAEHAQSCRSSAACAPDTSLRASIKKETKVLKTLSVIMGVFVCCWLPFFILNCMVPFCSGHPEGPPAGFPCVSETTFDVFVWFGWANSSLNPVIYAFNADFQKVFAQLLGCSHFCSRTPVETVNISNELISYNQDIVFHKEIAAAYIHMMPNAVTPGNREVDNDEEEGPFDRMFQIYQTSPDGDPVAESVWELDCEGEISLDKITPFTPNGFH
Description: PDSP Primary Binding target: DRD5 - Compounds are tested at 10 uM concentration, plate are incubated at room temperature in the dark for 90 minutes. Reaction are stopped by vacuum filtration onto 0.3% polyethyleneimine soaked filter mats using Filtermate harvester. Scintilation cocktail is then melted onto microwave-dried filters on a hot plate and the radio activity is counted in Microbia counter.

Sequence of Mu-type opioid receptor (Homo sapiens) (P35372 whole entry): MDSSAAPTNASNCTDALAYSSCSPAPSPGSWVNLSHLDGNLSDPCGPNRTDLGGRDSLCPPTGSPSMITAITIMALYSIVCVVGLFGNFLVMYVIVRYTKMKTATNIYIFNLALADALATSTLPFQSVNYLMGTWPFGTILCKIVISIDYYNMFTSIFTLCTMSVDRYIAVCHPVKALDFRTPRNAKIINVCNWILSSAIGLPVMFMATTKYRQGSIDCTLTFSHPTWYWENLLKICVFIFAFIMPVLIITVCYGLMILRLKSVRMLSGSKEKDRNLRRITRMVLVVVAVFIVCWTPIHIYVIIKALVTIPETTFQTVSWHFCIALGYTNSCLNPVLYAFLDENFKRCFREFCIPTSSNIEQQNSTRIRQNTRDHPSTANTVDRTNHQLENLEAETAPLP
Sequence of Histamine H3 receptor (Homo sapiens) (Q9Y5N1 whole entry): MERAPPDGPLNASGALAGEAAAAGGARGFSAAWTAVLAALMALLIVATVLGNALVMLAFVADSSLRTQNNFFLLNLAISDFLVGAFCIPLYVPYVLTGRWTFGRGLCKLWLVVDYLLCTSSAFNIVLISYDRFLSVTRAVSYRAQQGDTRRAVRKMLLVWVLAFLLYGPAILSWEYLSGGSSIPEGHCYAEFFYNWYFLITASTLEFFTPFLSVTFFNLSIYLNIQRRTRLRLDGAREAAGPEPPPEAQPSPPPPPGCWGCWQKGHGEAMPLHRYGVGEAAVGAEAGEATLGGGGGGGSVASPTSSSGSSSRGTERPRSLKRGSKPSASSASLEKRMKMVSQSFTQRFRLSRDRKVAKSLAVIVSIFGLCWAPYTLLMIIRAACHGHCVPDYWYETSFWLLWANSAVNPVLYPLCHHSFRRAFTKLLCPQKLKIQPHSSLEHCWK
Sequence of 5-hydroxytryptamine receptor 2A (Homo sapiens) (P28223 whole entry): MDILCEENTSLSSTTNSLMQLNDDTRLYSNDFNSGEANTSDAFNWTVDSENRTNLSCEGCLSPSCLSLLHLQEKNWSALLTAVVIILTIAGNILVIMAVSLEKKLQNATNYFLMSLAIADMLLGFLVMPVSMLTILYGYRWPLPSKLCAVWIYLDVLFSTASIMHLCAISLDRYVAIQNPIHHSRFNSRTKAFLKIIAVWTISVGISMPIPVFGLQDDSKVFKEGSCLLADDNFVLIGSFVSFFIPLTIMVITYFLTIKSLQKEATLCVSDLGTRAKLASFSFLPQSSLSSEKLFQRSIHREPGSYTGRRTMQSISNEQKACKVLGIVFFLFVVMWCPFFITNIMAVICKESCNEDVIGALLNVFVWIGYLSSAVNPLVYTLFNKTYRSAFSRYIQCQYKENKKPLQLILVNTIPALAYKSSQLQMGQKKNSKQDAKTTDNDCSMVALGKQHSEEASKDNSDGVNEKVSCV
Sequence of 5-hydroxytryptamine receptor 1E (Homo sapiens) (P28566 whole entry): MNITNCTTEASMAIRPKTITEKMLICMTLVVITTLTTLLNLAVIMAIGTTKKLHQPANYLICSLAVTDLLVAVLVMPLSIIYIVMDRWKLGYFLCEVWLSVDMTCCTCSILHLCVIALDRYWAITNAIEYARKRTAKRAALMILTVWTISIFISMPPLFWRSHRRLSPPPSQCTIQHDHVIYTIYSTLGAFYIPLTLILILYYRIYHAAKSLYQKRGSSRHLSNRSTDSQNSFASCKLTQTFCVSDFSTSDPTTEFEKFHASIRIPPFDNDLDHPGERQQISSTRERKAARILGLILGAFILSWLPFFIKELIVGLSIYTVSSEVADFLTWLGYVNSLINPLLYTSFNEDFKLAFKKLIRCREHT
Sequence of Beta-2 adrenergic receptor (Homo sapiens) (P07550 whole entry, looked up): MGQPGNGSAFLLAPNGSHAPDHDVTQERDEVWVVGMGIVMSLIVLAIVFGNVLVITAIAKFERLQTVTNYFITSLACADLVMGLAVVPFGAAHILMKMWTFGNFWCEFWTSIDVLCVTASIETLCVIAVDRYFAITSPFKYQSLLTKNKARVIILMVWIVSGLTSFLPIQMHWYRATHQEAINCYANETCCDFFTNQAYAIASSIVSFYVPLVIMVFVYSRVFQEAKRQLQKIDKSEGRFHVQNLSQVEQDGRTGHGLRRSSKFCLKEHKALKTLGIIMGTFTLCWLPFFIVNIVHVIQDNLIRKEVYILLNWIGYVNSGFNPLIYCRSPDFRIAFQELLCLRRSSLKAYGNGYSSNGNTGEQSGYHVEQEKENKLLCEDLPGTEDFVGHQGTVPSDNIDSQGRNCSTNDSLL
Sequence of Sigma intracellular receptor 2 (Homo sapiens) (Q5BJF2 whole entry): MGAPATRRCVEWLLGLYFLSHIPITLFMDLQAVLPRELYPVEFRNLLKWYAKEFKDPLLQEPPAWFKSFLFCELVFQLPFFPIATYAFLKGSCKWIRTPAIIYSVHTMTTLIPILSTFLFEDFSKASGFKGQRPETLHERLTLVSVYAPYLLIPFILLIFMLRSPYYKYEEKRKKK
Sequence of Delta-type opioid receptor (Homo sapiens) (P41143 whole entry): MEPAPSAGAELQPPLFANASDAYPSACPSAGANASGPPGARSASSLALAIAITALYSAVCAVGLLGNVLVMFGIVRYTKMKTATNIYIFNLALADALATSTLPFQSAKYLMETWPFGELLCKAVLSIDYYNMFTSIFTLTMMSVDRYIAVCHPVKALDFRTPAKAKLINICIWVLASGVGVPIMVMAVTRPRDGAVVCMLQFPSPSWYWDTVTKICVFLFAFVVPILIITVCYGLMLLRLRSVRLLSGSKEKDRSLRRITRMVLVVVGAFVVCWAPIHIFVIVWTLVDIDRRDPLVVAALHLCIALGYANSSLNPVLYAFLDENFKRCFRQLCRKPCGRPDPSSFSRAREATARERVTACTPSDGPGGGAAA

Compound	inhibition [1] [%]	inhibition [2] [%]	inhibition [3] [%]	inhibition [4] [%]	inhibition [5] [%]	inhibition [6] [%]	inhibition [7] [%]	inhibition [8] [%]	inhibition [9] [%]	inhibition [10] [%]	inhibition [11] [%]	inhibition [12] [%]	inhibition [13] [%]
COc1ccc2cc(S(=O)(=O)N[C@H](CC(=O)N[C@H](Cc3ccc(CN4[C@H](C)CCC[C@@H]4C)cc3)C(=O)N(C)C(C)C)c3ccc4c(c3)OCO4)ccc2c1	33.5	62.1	15.9	97.7	8.79	40	46.7	44.5	28.8	3.26	–	–	–
N#Cc1c(N)nc(SCc2csc(-c3ccc(Cl)cc3)n2)c(C#N)c1-c1ccc(OCCO)cc1	2.13	5.12	6.13	36.6	–	–	-8.79	-3.33	18.4	6.84	17	-9.34	–
COc1ccc(CNC(=O)c2cc(-c3cncc(Cl)c3)cnc2-c2ccccn2)nc1OC	-7.15	-2.53	-7.71	16.4	-4.67	30.5	–	-7.31	88.7	0.56	-9.92	12.9	1.18
CC(C)Oc1ccccc1C(=O)Nc1ccccc1C(=O)Nc1cccc(S(=O)(=O)C(F)(F)F)c1	–	-5.72	–	-6.23	-2.57	-7.51	-2.68	-6.91	87.8	-8.65	-8.68	-4.72	4.49
OCc1cc(C(O)CNCCCCCCOCCCCc2ccccc2)ccc1O (centres undefined)	74.1	23.3	65.8	102	5.6	6.99	–	19.1	78.2	77	–	17.4	19.6
CNc1nc(NCc2ccc(NS(C)(=O)=O)cc2Cl)cc(-c2ccccn2)n1	24.4	-8.26	12.4	39.1	-8.14	14.5	9.44	9.22	60.3	8	–	-3.24	–
O=C(O)CC1CCC2(CC1)CCN(c1cc(OC(F)(F)F)ccc1Cl)CC2	–	7.59	–	-1.25	-0.66	34.3	7.8	-1.08	26.1	-7.1	0.58	16.8	-2.48
CS(=O)(=O)NC[C@H]1CC[C@H](Nc2nc3c(s2)CCSc2ccccc2-3)CC1	23.8	-7.45	2.44	81.4	4.54	-6.3	–	-1.96	23.7	-9.44	94.4	6.22	-6.36
FC(F)(F)c1cccc(-c2noc(-c3cc(-c4ccccc4)c(C(F)(F)F)s3)n2)c1	–	–	1.55	–	–	-7.64	-0.35	21.5	-1.97	–	–	10.4	–
CC(C)NC(=O)c1ccc(C#Cc2ccncc2)cn1	-0.82	–	13.3	8.09	-3.71	0.15	30.9	-0.6	4.54	-5.19	-8.85	-1.26	–
CC1(C)SSC(C)(C)[C@@H](NC(=O)[C@@H](N)Cc2ccc(O)cc2)C(=O)NCC(=O)N[C@@H](Cc2ccccc2)C(=O)N[C@H]1C(=O)O	6.52	-2.58	–	22.6	–	–	-2.51	-6.96	24.5	-6.07	-0.03	17.2	3.84
Cc1ccc(O)c([C@H](CCN(C(C)C)C(C)C)c2ccccc2)c1	36.7	4.65	1.72	96.9	-8.98	-3.49	0.61	99.2	11.4	0.77	19.5	–	–
C[N+]1(C)[C@@H]2C[C@@H](OC(=O)C(O)(c3cccs3)c3cccs3)C[C@H]1[C@@H]1O[C@@H]12	8.74	–	13.1	66.5	-1.59	10.3	98.8	94.5	-4.76	3.89	16.1	11.2	–
Clc1ccc(CCCOCCCN2CCCCC2)cc1	1.88	79.8	0.84	98.7	-1.15	3.99	76.8	24.5	28.5	-2.04	-7.56	17.3	–
O=C(O)Cn1c(C(=O)Nc2nc(-c3ccccc3Cl)cs2)cc2ccccc21	2.63	-1.46	-3.75	36.6	19	8.9	–	6.86	–	–	-7.21	3.11	-2.39
